Key:
[1] = tested on: α-tubulin; test: Co-immunoprecipitation with α-tubulin antibody: peptide interaction with α-tubulin; format: binding, human; conditions: VTC-037 GSCs, 50 μM, 24 h, cross-linked (DTBP); compared to antennapedia alone or JM2-scrambled; NeutrAvidin-HRP detection
Protocol: Prior to lysis, cross-linking was completed by incubating cells in DTBP (dimethyl 3,3’-dithiobispropionimidate; 2 mM in PBS) for 30 min at 37 °C followed by a glycine quench (100 mM glycine in PBS) for 15 min at room temperature. Cross-linked samples were lysed in RIPA buffer supplemented with Halt^TM Protease and Phosphatase Inhibitor Cocktail as described above, but without sonication. Co-immunoprecipitation (co-IP) assays were also performed without cross-linking; non-cross-linked samples were lysed using a co-IP lysis buffer (0.5% Triton X-100, 50 mM Tris HCl, 150 mM NaCl, 1 mM EDTA, 1 mM EGTA, 1 mM DTT, 0.1 mM Na3VO4, and 1 mM NaF) supplemented with Halt^TM Protease and Phosphatase Inhibitor Cocktail, without sonication. Protein concentration was quantified using the DC protein assay and a standard curve obtained with increasing concentrations of BSA, and 500 μg of total protein was used per reaction for co-IP. Inputs were removed prior to co-IP and denatured in Bolt LDS sample buffer as described above. Remaining protein lysates were incubated with Protein G Sepharose^TM 4 Fast Flow beads (GE Healthcare) for pre-clearance for 30 min at 4 °C. Samples were incubated with 2 μg of mouse anti-α-tubulin (MilliporeSigma, T6199) for cross-linked samples or mouse anti-Cx43 antibody (EMD Millipore; MAB3067) for non-cross-linked samples for 90 min at 4 °C. […]

[2] = tested on: LN229/GSCs; test: MTS survival, LN229/GSCs; format: cell-based, human; conditions: 100 µM, 4 days
Protocol: Cells were plated in 96-well plates (2000–5000 cells per well) and treated the following day with TMZ (10, 50, or 100 μM), antennapedia, JM2-scrambled, or JM2 (10, 50, or 100 μM). After 4 days, cell viability was monitored following addition of MTS reagent (Promega) according to manufacturer’s instructions. The absorbance at 490 nm was measured using a SpectraMax i3 or iD3 microplate reader (Molecular Devices). For the caspase 3/7 activity assay, cells were plated in 96-well plates (2000 cells per well) and treated with TMZ or peptides as described above. The activity of caspase 3/7 was measured after 48 h using the Caspase-Glo® 3/7 assay (Promega) following the manufacturer’s instructions. Fold change of caspase 3/7 activity was defined as the ratio of caspase 3/7 luminescence in treated cells compared to controls.

[3] = tested on: VTC-001 GSCs; test: Limiting dilution analysis (ELDA), VTC-001 GSCs; format: cell-based, human; conditions: VTC-001, 100 μM every other day, 2 weeks; compared to JM2-scrambled or control
Protocol: (§1) GSCs and PDX GBM22 cells were plated as single cell suspension in low-attachment 96-well plates (GSCs: 100–500 cells per well; GBM22 cells: 500–2000 cells per well), using methods similar to those reported previously. Cells were then treated with peptides every other day. 2 weeks later, gliospheres were observed using phase contrast microscopy on a Revolve microscope (Echo Laboratories). The number of gliospheres was then determined, while the gliosphere size was assessed by diameter measurement. To evaluate stem cell frequency in GSCs, gliosphere formation assay was performed with limiting cell dilutions with cells plated at varying densities in low-attachment 96-well plates. Cells were treated with peptides every other day, and after 2 weeks, gliosphere-positive wells were observed and scored using phase contrast microscopy on a Revolve microscope. The stem cell frequency was analyzed using the online data analysis program ELDA (Extreme Limiting Dilution Analysis).
(§2) All quantification was performed on experiments repeated at least three times. Statistical analysis was conducted with GraphPad Prism (GraphPad Software). Data were analyzed for significance using Student’s t test, one-way ANOVA with Tukey’s multiple comparisons test, and presented as mean ± SD. […] Statistical significance between experimental groups was determined using chi-square (χ²) tests within the ELDA framework. […]

[4] = tested on: VTC-034 GSCs; test: Limiting dilution analysis (ELDA), VTC-034 GSCs; format: cell-based, human; conditions: VTC-034, 100 μM every other day, 2 weeks; compared to JM2-scrambled or control
Protocol: as §1, §2

[5] = tested on: VTC-037 GSCs; test: Limiting dilution analysis (ELDA), VTC-037 GSCs; format: cell-based, human; conditions: VTC-037, 100 μM every other day, 2 weeks; compared to JM2-scrambled or control
Protocol: as §1, §2

[6] = tested on: HES1 mRNA; test: HES1 mRNA by RT-qPCR, VTC-037 GSCs; format: cell-based, human; conditions: 50 μM, 24 h, compared to antennapedia alone or JM2-scrambled
Protocol: (§3) RNA was extracted using the PureLink^TM RNA mini extraction kit (Thermo Fisher) and on-column DNA digestion was completed using PureLink^TM DNase according to the manufacturer’s instructions. RNA was reverse transcribed to generate cDNA using the iScript^TM Reverse Transcription SuperMix for RT-qPCR kit (Bio-Rad Laboratories). Real-time PCR was performed using the SYBR select Master Mix for CFX (Thermo Fisher) in hard-shell 96-well PCR plates (Bio-Rad Laboratories) on a CFX Connect Real Time System (Bio-Rad Laboratories). Primer sequences used were: hNOTCH1_Fwd: 5’-CGCACAAGGTGTCTTCCAG-3’; hNOTCH1_Rev: 5’-CGGCGTGTGAGTTGATGA-3’; hHES1_Fwd: 5’-GGCTGGAGAGGCGGCTAA-3’; hHES1_Rev: 5’-[…]-3’; hHEY1_Fwd: 5’-[…]-3’; hHEY1_Rev: 5’-[…]-3’.

[7] = tested on: HEY1 mRNA; test: HEY1 mRNA by RT-qPCR, VTC-037 GSCs; format: cell-based, human; conditions: 50 μM, 24 h, compared to JM2-scrambled
Protocol: as §3

In the case of VFFKGVKDRVKGRSD [JM2], the “Interaction of peptide with α-tubulin (co-IP)” value [1] is reported as “robustly interacted with α-tubulin”, the “LN229/GSC survival (MTS)” value [2] is reported as “significantly decreased LN229/GSC survival after 4 days” and the “GSC frequency / self-renewal (limiting dilution)” value [3] is reported as “significant decrease in VTC-001, VTC-034, and VTC-037 GSC frequency”. For the same sequence, the “GSC frequency / self-renewal (limiting dilution)” value [4] was “significant decrease in VTC-001, VTC-034, and VTC-037 GSC frequency”, the “GSC frequency / self-renewal (limiting dilution)” value [5] was “significant decrease in VTC-001, VTC-034, and VTC-037 GSC frequency” and the “Hes1 mRNA expression” value [6] was “significantly decreased the expression of Notch downstream targets Hes1 and Hey1 at the transcription level”. The “Hey1 mRNA expression” value [7] was “significantly decreased the expression of Notch downstream targets Hes1 and Hey1 at the transcription level”.
